Measured values taken from PubChem BioAssay AID1259407 (Chemical Carcinogenesis Research Information System (CCRIS), 2018).
The source made the active and inactive calls. No rule for the calls is given here.

Test system: CCRIS mutagenicity, Ames/micronucleus/aberration tests
Assay: CCRIS mutagenicity studies
[1] = Test System: AMES SALMONELLA TYPHIMURIUM, Strain/Indicator: TA98, Metabolic Activation: NONE, Method: STANDARD PLATE
[2] = Test System: AMES SALMONELLA TYPHIMURIUM, Strain/Indicator: TA98, Metabolic Activation: RAT, LIVER, S-9, AROCLOR 1254, Method: STANDARD PLATE
[3] = Test System: AMES SALMONELLA TYPHIMURIUM, Strain/Indicator: TA100, Metabolic Activation: NONE, Method: STANDARD PLATE
[4] = Test System: AMES SALMONELLA TYPHIMURIUM, Strain/Indicator: TA100, Metabolic Activation: RAT, LIVER, S-9, AROCLOR 1254, Method: STANDARD PLATE
[5] = Test System: AMES SALMONELLA TYPHIMURIUM, Strain/Indicator: TA1535, Metabolic Activation: NONE, Method: STANDARD PLATE
[6] = Test System: AMES SALMONELLA TYPHIMURIUM, Strain/Indicator: TA1535, Metabolic Activation: RAT, LIVER, S-9, AROCLOR 1254, Method: STANDARD PLATE
[7] = Test System: AMES SALMONELLA TYPHIMURIUM, Strain/Indicator: TA1537, Metabolic Activation: NONE, Method: STANDARD PLATE
[8] = Test System: AMES SALMONELLA TYPHIMURIUM, Strain/Indicator: TA1537, Metabolic Activation: RAT, LIVER, S-9, AROCLOR 1254, Method: STANDARD PLATE
[9] = Test System: AMES SALMONELLA TYPHIMURIUM, Strain/Indicator: TA100, Metabolic Activation: NONE, Method: PREINCUBATION

Measured: mutagenic call

C1COCO1
inactive: [1] inactive; negative | [2] inactive; negative | [3] inactive; negative | [4] inactive; negative | [5] inactive; negative | [6] inactive; negative | [7] inactive; negative | [8] inactive; negative | Test System: AMES SALMONELLA TYPHIMURIUM, Strain/Indicator: TA1538, Metabolic Activation: NONE, Method: STANDARD PLATE inactive; negative | Test System: AMES SALMONELLA TYPHIMURIUM, Strain/Indicator: TA1538, Metabolic Activation: RAT, LIVER, S-9, AROCLOR 1254, Method: STANDARD PLATE inactive; negative

Oc1cc(O)c2c(c1)O[C@H](c1ccc(O)c(O)c1)[C@H](O)C2
inactive: Test System: Ames Salmonella typhimurium, Strain/Indicator: TA102, Metabolic Activation: None, Method: Preincubation inactive; negative | Test System: Ames Salmonella typhimurium, Strain/Indicator: TA102, Metabolic Activation: Rat, Liver, S-9, Aroclor 1254 in 0.154 M KCl, Method: Preincubation inactive; negative

CN1Cc2c(N)cccc2C(c2ccccc2)C1 (centres undefined)
inactive: [1] inactive; negative | [2] inactive; negative | [3] inactive; negative | [4] inactive; negative | [5] inactive; negative | [6] inactive; negative | [7] inactive; negative | [8] inactive; negative

O=C(N[C@H](CO)[C@H](O)c1ccc([N+](=O)[O-])cc1)C(Cl)Cl
inactive: Test System: CHINESE HAMSTER V-79, Strain/Indicator: V-79/6-THIOGUANINE, Metabolic Activation: RAT HEPATOCYTES inactive; negative
active: Test System: CHINESE HAMSTER V-79, Strain/Indicator: V-79/6-THIOGUANINE, Metabolic Activation: NONE active; positive

Cc1ccc(NO)cc1C
active: [9] active; positive | Test System: AMES SALMONELLA TYPHIMURIUM, Strain/Indicator: TA100, Metabolic Activation: RAT, LIVER, S-9, PCB, Method: PREINCUBATION active; positive

CCC(C)c1ccccc1O (centres undefined)
inactive: Test System: AMES SALMONELLA TYPHIMURIUM, Strain/Indicator: TA98, Metabolic Activation: HAMSTER, LIVER, S-9, AROCLOR 1254 (10%), Method: PREINCUBATION inactive; negative | Test System: AMES SALMONELLA TYPHIMURIUM, Strain/Indicator: TA98, Metabolic Activation: NONE, Method: PREINCUBATION inactive; negative | Test System: AMES SALMONELLA TYPHIMURIUM, Strain/Indicator: TA98, Metabolic Activation: RAT LIVER S-9, PHENOBARBITAL AND BETA-NAPHTHOFLAVONE, Method: PREINCUBATION inactive; negative | Test System: AMES SALMONELLA TYPHIMURIUM, Strain/Indicator: TA98, Metabolic Activation: RAT, LIVER, S-9, AROCLOR 1254 (10%), Method: PREINCUBATION inactive; negative | Test System: AMES SALMONELLA TYPHIMURIUM, Strain/Indicator: TA100, Metabolic Activation: HAMSTER, LIVER, S-9, AROCLOR 1254 (10%), Method: PREINCUBATION inactive; negative | [9] inactive; negative | Test System: AMES SALMONELLA TYPHIMURIUM, Strain/Indicator: TA100, Metabolic Activation: RAT LIVER S-9, PHENOBARBITAL AND BETA-NAPHTHOFLAVONE, Method: PREINCUBATION inactive; negative | Test System: AMES SALMONELLA TYPHIMURIUM, Strain/Indicator: TA100, Metabolic Activation: RAT, LIVER, S-9, AROCLOR 1254 (10%), Method: PREINCUBATION inactive; negative | Test System: AMES SALMONELLA TYPHIMURIUM, Strain/Indicator: TA1535, Metabolic Activation: HAMSTER, LIVER, S-9, AROCLOR 1254 (10%), Method: PREINCUBATION inactive; negative | Test System: AMES SALMONELLA TYPHIMURIUM, Strain/Indicator: TA1535, Metabolic Activation: NONE, Method: PREINCUBATION inactive; negative | Test System: AMES SALMONELLA TYPHIMURIUM, Strain/Indicator: TA1535, Metabolic Activation: RAT LIVER S-9, PHENOBARBITAL AND BETA-NAPHTHOFLAVONE, Method: PREINCUBATION inactive; negative | Test System: AMES SALMONELLA TYPHIMURIUM, Strain/Indicator: TA1535, Metabolic Activation: RAT, LIVER, S-9, AROCLOR 1254 (10%), Method: PREINCUBATION inactive; negative | Test System: AMES SALMONELLA TYPHIMURIUM, Strain/Indicator: TA1537, Metabolic Activation: HAMSTER, LIVER, S-9, AROCLOR 1254 (10%), Method: PREINCUBATION inactive; negative | Test System: AMES SALMONELLA TYPHIMURIUM, Strain/Indicator: TA1537, Metabolic Activation: NONE, Method: PREINCUBATION inactive; negative | Test System: AMES SALMONELLA TYPHIMURIUM, Strain/Indicator: TA1537, Metabolic Activation: RAT LIVER S-9, PHENOBARBITAL AND BETA-NAPHTHOFLAVONE, Method: PREINCUBATION inactive; negative | Test System: AMES SALMONELLA TYPHIMURIUM, Strain/Indicator: TA1537, Metabolic Activation: RAT, LIVER, S-9, AROCLOR 1254 (10%), Method: PREINCUBATION inactive; negative | Test System: E.COLI, Strain/Indicator: WP2UVRA/PKM101, Metabolic Activation: NONE, Method: PREINCUBATION inactive; negative | Test System: E.COLI, Strain/Indicator: WP2UVRA/PKM101, Metabolic Activation: RAT LIVER S-9, PHENOBARBITAL AND BETA-NAPHTHOFLAVONE, Method: PREINCUBATION inactive; negative

Cn1cnc2ccc([N+](=O)[O-])cc21
active: [1] active; positive

Cc1c(N)nc(C(CC(N)=O)NCC(N)C(N)=O)nc1C(=O)NC(C(=O)NC(C)C(O)C(C)C(=O)NC(C(=O)NCCc1nc(-c2nc(C(=O)O)cs2)cs1)C(C)O)C(OC1OC(CO)C(O)C(O)C1OC1OC(CO)C(O)C(OC(N)=O)C1O)c1cnc[nH]1 (centres undefined)
inactive: Test System: AMES SALMONELLA TYPHIMURIUM, Strain/Indicator: TA102, Metabolic Activation: NONE, Method: PREINCUBATION inactive; negative
